Reference: ChEMBL document CHEMBL1152560, “Substituted 2-arylbenzothiazoles as kinase inhibitors: hit-to-lead optimization” (Bioorg Med Chem, 2009)

Assays:
[1] = biological target: T1, Cyclin-dependent kinase 7/ cyclin H (Homo sapiens) (UniProt P51946+P50613); assay: Residual activity of CDK7/CyclinH/MAT1 at 1 uM by microplate scintillation counting; format: protein-complex assay
[2] = biological target: Serine/threonine-protein kinase Chk2 (Homo sapiens) (UniProt O96017); assay: Residual activity of CHK2 at 1 uM by microplate scintillation counting
[3] = biological target: T2, Tyrosine-protein kinase ITK/TSK (Homo sapiens) (UniProt Q08881); assay: Residual activity of ITK at 1 uM by microplate scintillation counting
T2 sequence (whole entry): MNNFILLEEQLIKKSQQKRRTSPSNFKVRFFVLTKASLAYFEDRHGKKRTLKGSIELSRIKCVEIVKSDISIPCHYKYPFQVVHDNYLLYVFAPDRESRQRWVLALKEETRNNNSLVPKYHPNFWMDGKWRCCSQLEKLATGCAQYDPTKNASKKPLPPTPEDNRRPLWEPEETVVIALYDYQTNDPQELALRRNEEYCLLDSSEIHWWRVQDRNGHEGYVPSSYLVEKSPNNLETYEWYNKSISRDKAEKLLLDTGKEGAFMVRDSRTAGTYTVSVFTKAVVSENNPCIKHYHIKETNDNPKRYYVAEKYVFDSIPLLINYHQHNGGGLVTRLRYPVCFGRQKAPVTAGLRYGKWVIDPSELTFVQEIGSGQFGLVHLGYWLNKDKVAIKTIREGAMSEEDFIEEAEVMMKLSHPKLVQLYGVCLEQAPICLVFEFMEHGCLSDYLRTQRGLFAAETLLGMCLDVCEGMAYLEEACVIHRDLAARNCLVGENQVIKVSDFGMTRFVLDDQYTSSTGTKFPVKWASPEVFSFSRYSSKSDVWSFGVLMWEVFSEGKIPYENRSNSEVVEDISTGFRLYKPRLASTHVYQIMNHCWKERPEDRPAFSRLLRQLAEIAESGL

[4] = test system: Epidermal growth factor receptor (Homo sapiens), P00533 [L858R,T790M]; assay: Residual activity of EGFR T790M/L858R mutant at 10 uM by microplate scintillation counting
[5] = biological target: T3, Activin receptor type-1B (Homo sapiens) (UniProt P36896); assay: Residual activity of ACVR1B at 10 uM by microplate scintillation counting
T3 sequence (whole entry): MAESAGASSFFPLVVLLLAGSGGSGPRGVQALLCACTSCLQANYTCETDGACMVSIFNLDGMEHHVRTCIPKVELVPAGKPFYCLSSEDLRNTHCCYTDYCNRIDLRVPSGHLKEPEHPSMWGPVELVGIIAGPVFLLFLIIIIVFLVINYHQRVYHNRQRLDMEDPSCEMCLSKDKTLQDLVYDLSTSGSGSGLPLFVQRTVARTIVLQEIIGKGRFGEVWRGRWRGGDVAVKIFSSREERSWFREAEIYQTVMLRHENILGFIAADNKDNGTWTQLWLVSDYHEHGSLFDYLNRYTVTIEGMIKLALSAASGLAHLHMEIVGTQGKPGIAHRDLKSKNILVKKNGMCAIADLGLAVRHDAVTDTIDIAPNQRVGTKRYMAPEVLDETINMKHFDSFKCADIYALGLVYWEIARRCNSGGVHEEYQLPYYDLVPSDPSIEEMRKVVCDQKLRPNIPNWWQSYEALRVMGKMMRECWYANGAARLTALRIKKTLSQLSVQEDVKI

[6] = test system: Mast/stem cell growth factor receptor Kit (Homo sapiens), P10721 [T670I]; assay: Residual activity of KIT T670I mutant at 10 uM by microplate scintillation counting
[7] = test system: Tyrosine-protein kinase ABL1 (Homo sapiens), P00519 [T315I]; assay: Residual activity of ABL1 T315I mutant at 0.1 uM by microplate scintillation counting
Aurora kinase B = Aurora kinase B (Homo sapiens, UniProt Q96GD4); assay: Residual activity of Aurora-B at 0.1 uM by microplate scintillation counting
[8] = biological target: Protein-tyrosine kinase 6 (Homo sapiens) (UniProt Q13882); assay: Residual activity of BRK at 0.1 uM by microplate scintillation counting
[9] = biological target: T1, Cyclin-dependent kinase 7/ cyclin H (Homo sapiens); assay: Residual activity of CDK7/CyclinH/MAT1 at 0.1 uM by microplate scintillation counting; format: protein-complex assay
[10] = biological target: Ribosomal protein S6 kinase alpha-4 (Homo sapiens) (UniProt O75676); assay: Residual activity of RPS6KA4 at 0.1 uM by microplate scintillation counting
[11] = biological target: T4, Serine/threonine-protein kinase TAO2 (Homo sapiens) (UniProt Q9UL54); assay: Residual activity of TAOK2 at 0.1 uM by microplate scintillation counting
T4 sequence (whole entry): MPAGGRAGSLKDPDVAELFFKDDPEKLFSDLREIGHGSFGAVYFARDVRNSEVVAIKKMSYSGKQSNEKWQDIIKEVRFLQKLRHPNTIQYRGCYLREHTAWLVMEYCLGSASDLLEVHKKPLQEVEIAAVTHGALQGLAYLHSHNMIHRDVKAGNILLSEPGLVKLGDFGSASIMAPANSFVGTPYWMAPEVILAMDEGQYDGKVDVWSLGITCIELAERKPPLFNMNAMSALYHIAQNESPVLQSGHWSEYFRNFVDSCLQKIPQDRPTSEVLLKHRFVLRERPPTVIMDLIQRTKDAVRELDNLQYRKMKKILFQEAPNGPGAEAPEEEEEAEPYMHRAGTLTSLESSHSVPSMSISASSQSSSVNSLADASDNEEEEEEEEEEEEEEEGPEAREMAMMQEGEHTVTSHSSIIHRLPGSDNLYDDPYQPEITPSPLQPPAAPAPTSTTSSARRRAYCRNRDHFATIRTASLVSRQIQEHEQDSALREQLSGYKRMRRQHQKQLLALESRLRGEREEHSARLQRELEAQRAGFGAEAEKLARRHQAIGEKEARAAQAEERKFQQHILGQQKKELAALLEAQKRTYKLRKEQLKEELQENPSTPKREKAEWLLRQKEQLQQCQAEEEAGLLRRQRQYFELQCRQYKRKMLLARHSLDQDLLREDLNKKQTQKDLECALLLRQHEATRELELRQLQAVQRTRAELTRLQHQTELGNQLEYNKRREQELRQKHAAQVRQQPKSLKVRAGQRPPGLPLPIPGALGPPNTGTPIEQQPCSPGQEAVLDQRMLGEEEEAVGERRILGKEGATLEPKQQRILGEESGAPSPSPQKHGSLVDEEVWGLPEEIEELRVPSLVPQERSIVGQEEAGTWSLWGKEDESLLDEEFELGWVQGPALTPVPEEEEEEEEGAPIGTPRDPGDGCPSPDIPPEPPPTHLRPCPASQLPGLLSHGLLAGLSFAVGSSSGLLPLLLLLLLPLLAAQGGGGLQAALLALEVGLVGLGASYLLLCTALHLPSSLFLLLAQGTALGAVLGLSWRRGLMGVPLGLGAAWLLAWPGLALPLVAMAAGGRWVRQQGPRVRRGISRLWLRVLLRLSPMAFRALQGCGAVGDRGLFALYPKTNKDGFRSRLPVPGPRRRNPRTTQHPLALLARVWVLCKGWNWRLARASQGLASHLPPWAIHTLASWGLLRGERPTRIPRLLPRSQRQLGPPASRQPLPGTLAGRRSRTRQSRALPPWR

Aurora kinase B, sequence (Q96GD4 whole entry): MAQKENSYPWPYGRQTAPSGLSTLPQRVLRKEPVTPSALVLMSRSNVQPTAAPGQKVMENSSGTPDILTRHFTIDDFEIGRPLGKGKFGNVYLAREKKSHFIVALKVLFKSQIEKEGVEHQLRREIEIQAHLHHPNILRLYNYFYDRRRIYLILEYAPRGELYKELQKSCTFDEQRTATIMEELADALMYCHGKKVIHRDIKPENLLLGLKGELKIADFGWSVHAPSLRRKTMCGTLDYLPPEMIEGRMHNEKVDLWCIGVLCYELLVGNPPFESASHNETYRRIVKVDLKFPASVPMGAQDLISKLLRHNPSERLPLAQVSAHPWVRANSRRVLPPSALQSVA
Protein-tyrosine kinase 6 (Homo sapiens), sequence (Q13882 whole entry, looked up): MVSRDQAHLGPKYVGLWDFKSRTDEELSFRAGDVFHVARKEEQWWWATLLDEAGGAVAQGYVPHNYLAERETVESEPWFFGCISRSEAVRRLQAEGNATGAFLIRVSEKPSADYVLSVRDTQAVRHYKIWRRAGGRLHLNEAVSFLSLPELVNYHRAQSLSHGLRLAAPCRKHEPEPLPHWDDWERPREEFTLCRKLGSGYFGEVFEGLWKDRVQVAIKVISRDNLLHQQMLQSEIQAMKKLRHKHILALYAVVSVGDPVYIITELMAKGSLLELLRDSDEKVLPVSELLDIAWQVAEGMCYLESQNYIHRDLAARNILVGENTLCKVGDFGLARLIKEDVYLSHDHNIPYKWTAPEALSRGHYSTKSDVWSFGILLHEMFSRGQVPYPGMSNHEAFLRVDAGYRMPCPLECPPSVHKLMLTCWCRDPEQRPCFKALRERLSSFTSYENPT
Ribosomal protein S6 kinase alpha-4 (Homo sapiens), sequence (O75676 whole entry, looked up): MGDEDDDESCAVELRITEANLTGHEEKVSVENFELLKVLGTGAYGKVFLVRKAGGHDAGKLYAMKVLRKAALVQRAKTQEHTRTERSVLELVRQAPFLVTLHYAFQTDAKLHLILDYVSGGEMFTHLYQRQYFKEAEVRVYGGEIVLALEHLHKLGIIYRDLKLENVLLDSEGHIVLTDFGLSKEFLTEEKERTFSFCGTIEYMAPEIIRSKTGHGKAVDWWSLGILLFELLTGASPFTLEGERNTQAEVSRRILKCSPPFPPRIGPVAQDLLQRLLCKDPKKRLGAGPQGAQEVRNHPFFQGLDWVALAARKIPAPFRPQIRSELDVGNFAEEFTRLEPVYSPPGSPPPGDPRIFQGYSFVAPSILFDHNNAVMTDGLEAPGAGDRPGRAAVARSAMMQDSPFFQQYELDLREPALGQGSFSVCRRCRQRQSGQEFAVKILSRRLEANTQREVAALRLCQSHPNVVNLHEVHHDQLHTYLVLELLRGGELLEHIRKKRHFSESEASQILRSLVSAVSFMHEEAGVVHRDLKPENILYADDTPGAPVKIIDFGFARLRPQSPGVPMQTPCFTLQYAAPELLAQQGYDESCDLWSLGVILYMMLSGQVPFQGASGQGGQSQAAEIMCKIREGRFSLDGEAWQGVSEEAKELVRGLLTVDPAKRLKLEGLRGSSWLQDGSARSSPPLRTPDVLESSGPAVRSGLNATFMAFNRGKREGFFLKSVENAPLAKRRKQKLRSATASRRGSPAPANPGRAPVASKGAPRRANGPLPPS
Mast/stem cell growth factor receptor Kit (Homo sapiens), P10721 [T670I], sequence (P10721 whole entry T670I): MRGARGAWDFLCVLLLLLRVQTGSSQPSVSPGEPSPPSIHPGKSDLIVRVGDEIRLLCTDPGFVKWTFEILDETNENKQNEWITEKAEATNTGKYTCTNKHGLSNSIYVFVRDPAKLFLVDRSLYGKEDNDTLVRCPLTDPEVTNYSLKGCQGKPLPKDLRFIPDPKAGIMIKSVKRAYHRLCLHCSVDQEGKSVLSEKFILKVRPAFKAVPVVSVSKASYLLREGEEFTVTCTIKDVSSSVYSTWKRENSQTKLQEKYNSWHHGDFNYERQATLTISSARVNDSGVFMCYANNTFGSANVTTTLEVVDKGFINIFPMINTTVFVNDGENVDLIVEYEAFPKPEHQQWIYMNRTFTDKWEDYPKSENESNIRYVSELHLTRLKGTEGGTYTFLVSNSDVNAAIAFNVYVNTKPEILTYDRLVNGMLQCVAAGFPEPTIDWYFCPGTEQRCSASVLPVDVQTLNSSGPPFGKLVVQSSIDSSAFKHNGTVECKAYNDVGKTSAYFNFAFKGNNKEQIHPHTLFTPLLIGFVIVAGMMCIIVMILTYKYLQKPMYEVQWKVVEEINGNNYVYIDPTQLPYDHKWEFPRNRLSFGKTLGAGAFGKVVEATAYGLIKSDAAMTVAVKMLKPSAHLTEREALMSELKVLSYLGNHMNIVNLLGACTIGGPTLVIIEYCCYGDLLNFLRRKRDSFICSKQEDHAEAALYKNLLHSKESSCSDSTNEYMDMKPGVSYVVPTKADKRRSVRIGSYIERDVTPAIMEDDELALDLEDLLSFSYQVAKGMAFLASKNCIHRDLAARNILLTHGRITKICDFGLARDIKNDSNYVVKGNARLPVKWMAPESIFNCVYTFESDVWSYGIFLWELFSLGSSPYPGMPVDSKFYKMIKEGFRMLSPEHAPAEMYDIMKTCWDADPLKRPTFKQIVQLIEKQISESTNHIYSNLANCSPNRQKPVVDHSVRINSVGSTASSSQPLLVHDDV
Serine/threonine-protein kinase Chk2 (Homo sapiens), sequence (O96017 whole entry): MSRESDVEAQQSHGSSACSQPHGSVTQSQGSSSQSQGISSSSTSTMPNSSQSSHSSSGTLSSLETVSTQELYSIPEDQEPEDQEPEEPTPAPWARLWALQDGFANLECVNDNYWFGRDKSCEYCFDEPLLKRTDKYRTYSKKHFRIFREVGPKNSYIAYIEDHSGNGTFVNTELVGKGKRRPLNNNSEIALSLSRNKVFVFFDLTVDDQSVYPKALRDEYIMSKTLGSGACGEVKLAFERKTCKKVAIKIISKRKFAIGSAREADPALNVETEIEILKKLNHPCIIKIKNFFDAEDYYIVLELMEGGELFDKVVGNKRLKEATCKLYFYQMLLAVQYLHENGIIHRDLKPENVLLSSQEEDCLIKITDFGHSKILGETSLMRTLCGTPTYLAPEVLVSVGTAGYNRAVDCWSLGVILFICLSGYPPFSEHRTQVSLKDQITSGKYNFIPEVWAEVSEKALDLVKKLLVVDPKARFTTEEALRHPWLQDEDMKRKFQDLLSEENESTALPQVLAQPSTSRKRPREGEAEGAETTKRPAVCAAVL

COc1cc2c(Oc3ccc(-c4nc5ccccc5s4)cc3)ncnc2cc1OCCCN1CCN(C)CC1
residual activity [1]: 94% | residual activity [2]: 54% | residual activity [3]: 91% | residual activity [4]: 167% | residual activity [5]: 93% | residual activity [6]: 40% | residual activity [7]: 96% | residual activity (Aurora kinase B): 40% | residual activity [8]: 65% | residual activity [9]: 104% | residual activity [10]: 91% | residual activity [11]: 92%

COc1cc2c(Oc3ccc(-c4nc5ccccc5s4)cc3)ncnc2cc1OCCCN1CCCC1
residual activity [1]: 77% | residual activity [2]: 75% | residual activity [3]: 95% | residual activity [4]: 147% | residual activity [5]: 104% | residual activity [6]: 52% | residual activity [7]: 98% | residual activity (Aurora kinase B): 48% | residual activity [8]: 57% | residual activity [9]: 97% | residual activity [10]: 88% | residual activity [11]: 102%

COc1cc2c(Oc3ccc(-c4nc5ccccc5s4)cc3F)ncnc2cc1OCCCN1CCN(C)CC1
residual activity [1]: 87% | residual activity [2]: 51% | residual activity [3]: 97% | residual activity [4]: 70% | residual activity [5]: 109% | residual activity [6]: 18% | residual activity [7]: 100% | residual activity (Aurora kinase B): 45% | residual activity [8]: 35% | residual activity [9]: 86% | residual activity [10]: 93% | residual activity [11]: 108%
